Columns and labels:
[1] = target: DhaA enzyme (Rhodococcus rhodochrous, UniProt P0A3G2); test: Cell free peptide/DhaA conversion, Mass Shifted Peptide Theoretical Max signal (Example 6); assay type: biochemical; details: DhaA converts —Cl input agent into —OH product agent, MS signal
Method: For the cell free systems, DPLs were diluted in a 500 μL DPW plate (library dilution plate). Individual peptides were diluted individually in low-bind tubes until making the final working dilution in PBS. At this point, the individual peptides were transferred to the library dilution plate. By having all final dilutions in one plate, a multichannel was used to transfer the diluted peptides to the cell free plates. The same design as “Source Plate” was used for the cell assay. For the peptide only plate, 45 μL of PBS was added to each well and 5 μL of the diluted library/peptide was added in triplicates. For peptide/DhaA plate, 5 μL of 50 μM DhaA enzyme was added, followed by 40 μL of PBS and 5 μL of the diluted library/peptide. Both plates were kept at the bench top thermomixer at 350 rpm and 37 ° C. overnight. The next day, 2 mL of a cell free solution was prepared with 1 mL of DMSO, 20 μL of PepMix and 980 μL of a 1:1 ratio of ACN/0.1% FA and H2O/0.1% FA. 5 μL of the cell free solution was added to a 384 well plate, followed by 45 μL of the cell free sample.
(§1) Once all samples were added (including cell free), the plate was placed in an autosampler of a mass spectrometer. For the mass spectrometry analysis, methods from example 1 were employed.
Results from certain assessment were presented blow. Cell crash method was utilized. Mass Shifted Peptide Theoretical Max signal is signal of an agent comprising —OH obtained when using the DhaA to convert input agent comprising —Cl into product agent comprising —OH form without involving cells (multiple agents may be converted simultaneously; in some embodiments, can be performed library by library). In some embodiments, each library pool plus positive and negative references was tested in a single well, which in some cases contain about a million or so cells. Each library pool is an individually prepared library with no purifications—all members mixed together along with side products, etc. “Cell Penetration Score” is calculated by dividing “Mass Shifted Peptide Signal in Cells” by “Mass Shifted Peptide Theoretical Max Signal” for each pair of replicates, then averaging those values across replicates; additionally or alternatively, COR and/or RPF may also be utilized.

[2] = system: Expi293 cells transfected with His-Halotag; test: Library cell penetration assay, cell crash method (Example 6); assay type: in vitro ADME, human; details: for Peptide Signal in Cells (from cells; agents comprising —Cl): MS signal of unconverted —Cl agent from cells; for Peptide Signal in Cells (from cells; agents comprising —Cl) / Mass Shifted Peptide Signal in Cells: library pool or individual peptide; for Mass Shifted Peptide Signal in Cells: MS signal of —OH agent from cells; for Cell Penetration Score: Mass Shifted Peptide Signal in Cells divided by Mass Shifted Peptide Theoretical Max Signal, averaged across replicates
Method: Animal cells (e.g., Expi293 cells or human HEK 293 cells) were seeded in tissue culture plates and cultured in Opti-MEM media. The cells were set in PETG flasks at a concentration of 6×10^5 cells/mL and a volume of 30 mL. The cell viability was checked to be above 90-93%. The flasks were placed in a shaking incubator at 300 rpm in 8% CO2.
After 24 hours of incubation, for each flask, one 1.5-mL Lo-bind tube and one 2-mL Lo-Bind tube were prepared. In the 1.5-mL tube, 30 μg of polyhistidine-tagged halotag (His-Halotag) plasmid and Opti-MEM media were added to provide a 1-mL mixture. In the 2-mL Lo-Bind tube, 60 μL of ExpiFectamine and 940 μL of Opti-MEM were added. After 5 minutes, the plasmid/Opti-MEM mixture was added to the ExpiFectamine/Opti-MEM mixture. The combined mixture was placed in an incubator at room temperature for 20 minutes, which was subsequently added to the flask.
After 48 hours of transfection, the transfected cells were checked for viability (90% or higher). The transfected cells were transferred to a protein Lo-Bind Eppendorf 96-well deep well plate (1000 μL), where each well contained 1 million cells in 500 μL of Expi293 media.
Solutions of candidate compounds, either individual peptides or peptides from a peptide library (DPLs), were received at a stock concentration of 10 mM and diluted in DMSO and kept in a “Source Plate”. For DPLs, the peptide concentration in the “Source Plate” was 1 mM, whereas for individual peptides, the concentration was either 100 μM (for a final concentration of 100 nM) or 10 μM (for a final concentration of 10 nM). […] of the DPL or individual peptide solution was added in triplicates to the 96-well plate. The cells were kept in a shaking incubator at 300 rpm and 37 ° C., 8% CO2 overnight for about 18-20 hours.
The following day, one of the following two methods was performed: i) capture beads method or ii) cell crash method.
Cell crash method: the 96-well plate was placed in the centrifuge at 300 g for 5 minutes. 720 μL of the supernatant was removed. The cells were resuspended in residual 200 μL of media. The suspensions were transferred to a 96-well v-bottom plate, which was placed in the centrifuge at 300 g for an additional 5 minutes. All remaining media was removed. The cell pellets were washed with 200 μL of PBS, mixed and placed back in the centrifuge at 300 g and 4 ° C. for an additional 5 minutes. The supernatant was removed and 80 μL of PBS was added.
80 μL of eluted proteins/peptides from the capture beads method or the PBD solution from the cell crash method was transferred into a deepwell low binding plate (500 μL). 80 μL of ammonium hydroxide was added. The plate was kept on a shaker at 37 ° C. for 3 hours. The plate was dried in a speedvac overnight.
The following day, the dried cell pellet was resuspended in 70 μL of 47.5% water with 0.1% FA/47.5% ACN with 0.1% FA/10 μM pepmix (10 mM stock)/5% fresh DMSO. The mixture was let sit in the plate for 1 hour to allow the dissolution of the pellet. If the sample appeared cloudy, more resuspension solution was added (50 μL at a time). 50 μL was transferred directly to the mass spec plate and the plate was sealed with the 384-well plate seal.
as §1
Results from certain assessment were presented blow. Cell crash method was utilized. Mass Shifted Peptide Theoretical Max signal is signal of an agent comprising —OH obtained when using the DhaA to convert input agent comprising —Cl into product agent comprising —OH form without involving cells (multiple agents may be converted simultaneously; in some embodiments, can be performed library by library). In some embodiments, each library pool plus positive and negative references was tested in a single well, which in some cases contain about a million or so cells. […]

DhaA enzyme, sequence (P0A3G2 whole entry): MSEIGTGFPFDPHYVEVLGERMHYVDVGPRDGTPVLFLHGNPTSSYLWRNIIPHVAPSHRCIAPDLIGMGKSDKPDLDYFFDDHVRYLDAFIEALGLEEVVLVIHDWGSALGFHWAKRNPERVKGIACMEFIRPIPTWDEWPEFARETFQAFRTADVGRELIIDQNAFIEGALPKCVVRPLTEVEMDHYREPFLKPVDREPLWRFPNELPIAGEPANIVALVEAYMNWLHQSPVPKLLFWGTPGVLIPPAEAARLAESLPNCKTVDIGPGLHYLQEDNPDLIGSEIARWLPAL

Question: “HaloTagO2-Leu-Thr-Phe-ReN-Glu-Tyr-Trp-Ala-Gln-Cba-Az-Ser-Ala-Ala-NHMe [PEP000131]” was tested. Which “Mass Shifted Peptide Theoretical Max Signal” value [1] did it give?
Answer: 3E+06

Question: What about the “Peptide Signal in Cells (from cells; agents comprising —Cl)” value [2] of the same substance?
Answer: 0E+00

Question: What about the “Mass Shifted Peptide Signal in Cells” value [2] of the same substance?
Answer: 1E+05

Question: And the “Cell Penetration Score” value [2]?
Answer: 3

Question: How did the “Mass Shifted Peptide Theoretical Max Signal” value [1] turn out when “HaloTagO2-Leu-Thr-Phe-ReN-Glu-Tyr-Trp-Ala-Gln-Cba-Az-Ser-Ala-Ala-NHMe [PEP000136]” was run?
Answer: 4E+06

Question: What about the “Peptide Signal in Cells (from cells; agents comprising —Cl)” value [2] of the same substance?
Answer: 0E+00

Question: And the “Mass Shifted Peptide Signal in Cells” value [2]?
Answer: 1E+04

Question: And the “Cell Penetration Score” value [2]?
Answer: 0

Question: For “HaloTagO2-Leu-Thr-Phe-ReN-Glu-Tyr-Trp-Ala-Thr-Cba-Az-Ser-Ala-Ala-NH2 [PEP000134]”, which “Mass Shifted Peptide Theoretical Max Signal” value [1] is on record?
Answer: 6E+06

Question: What about the “Peptide Signal in Cells (from cells; agents comprising —Cl)” value [2] of the same substance?
Answer: 3E+03

Question: And the “Mass Shifted Peptide Signal in Cells” value [2]?
Answer: 1E+05

Question: What about the “Cell Penetration Score” value [2] of the same substance?
Answer: 2

Question: For “HaloTagO2-Leu-Thr-Phe-ReN-Glu-Tyr-Trp-Ala-Thr-Cba-Az-Ser-Ala-Ala-NHMe [PEP000137]”, which “Mass Shifted Peptide Theoretical Max Signal” value [1] is on record?
Answer: 6E+06

Question: What about the “Peptide Signal in Cells (from cells; agents comprising —Cl)” value [2] of the same substance?
Answer: 0E+00

Question: What about the “Mass Shifted Peptide Signal in Cells” value [2] of the same substance?
Answer: 4E+05

Question: And the “Cell Penetration Score” value [2]?
Answer: 6

Question: “HaloTagO2-Leu-Thr-Phe-ReN-Thr-Tyr-Trp-Ala-Gln-Cba-Az-Ser-Ala-Ala-NH2 [PEP000129]” was tested. Which “Mass Shifted Peptide Theoretical Max Signal” value [1] did it give?
Answer: 6E+06

Question: And the “Peptide Signal in Cells (from cells; agents comprising —Cl)” value [2]?
Answer: 0E+00

Question: And the “Mass Shifted Peptide Signal in Cells” value [2]?
Answer: 1E+06

Question: What about the “Cell Penetration Score” value [2] of the same substance?
Answer: 19

Question: How did the “Mass Shifted Peptide Theoretical Max Signal” value [1] turn out when “HaloTagO2-Leu-Thr-Phe-ReN-Thr-Tyr-Trp-Ala-Gln-Cba-Az-Ser-Ala-Ala-NHMe [PEP000132]” was run?
Answer: 6E+06

Question: And the “Peptide Signal in Cells (from cells; agents comprising —Cl)” value [2]?
Answer: 0E+00

Question: What about the “Mass Shifted Peptide Signal in Cells” value [2] of the same substance?
Answer: 1E+06

Question: And the “Cell Penetration Score” value [2]?
Answer: 20

From patent US20230046728A1, “TECHNOLOGIES USEFUL FOR ASSESSING PERMEABILITY” (FOG PHARMACEUTICALS, INC., priority 2019, published 2023)
